Data on 29 molecules can be found in US20260028365A1 (BIOGEN MA INC., priority 2022, published 2026).

Read-outs that look alike come from different tables or passages of the source.

The target in one experiment is JH2 domain of human Tyk2 (Homo sapiens (Human), UniProt P29597). Kind of experiment: JH2 Biochemical Assay (TR-FRET probe displacement). The format is binding. On the technique in general: Time-resolved FRET reads energy transfer from a long-lived donor to a nearby acceptor.
The target in a further experiment is Tyk2 (Homo sapiens (Human), UniProt P29597). The experiment is described as follows: pSTAT4 Cell Assay (MSD, NK92 cells). The format is cell-based.
Where [1] appears, read: TR-FRET probe displacement, JH2 domain.
[2] abbreviates: JH2 domain of human Tyk2, TR-FRET probe displacement.
[3] abbreviates: TR-FRET probe displacement, JH2 domain of human Tyk2.

Tyk2, sequence (P29597 whole entry, the tested form may be a part): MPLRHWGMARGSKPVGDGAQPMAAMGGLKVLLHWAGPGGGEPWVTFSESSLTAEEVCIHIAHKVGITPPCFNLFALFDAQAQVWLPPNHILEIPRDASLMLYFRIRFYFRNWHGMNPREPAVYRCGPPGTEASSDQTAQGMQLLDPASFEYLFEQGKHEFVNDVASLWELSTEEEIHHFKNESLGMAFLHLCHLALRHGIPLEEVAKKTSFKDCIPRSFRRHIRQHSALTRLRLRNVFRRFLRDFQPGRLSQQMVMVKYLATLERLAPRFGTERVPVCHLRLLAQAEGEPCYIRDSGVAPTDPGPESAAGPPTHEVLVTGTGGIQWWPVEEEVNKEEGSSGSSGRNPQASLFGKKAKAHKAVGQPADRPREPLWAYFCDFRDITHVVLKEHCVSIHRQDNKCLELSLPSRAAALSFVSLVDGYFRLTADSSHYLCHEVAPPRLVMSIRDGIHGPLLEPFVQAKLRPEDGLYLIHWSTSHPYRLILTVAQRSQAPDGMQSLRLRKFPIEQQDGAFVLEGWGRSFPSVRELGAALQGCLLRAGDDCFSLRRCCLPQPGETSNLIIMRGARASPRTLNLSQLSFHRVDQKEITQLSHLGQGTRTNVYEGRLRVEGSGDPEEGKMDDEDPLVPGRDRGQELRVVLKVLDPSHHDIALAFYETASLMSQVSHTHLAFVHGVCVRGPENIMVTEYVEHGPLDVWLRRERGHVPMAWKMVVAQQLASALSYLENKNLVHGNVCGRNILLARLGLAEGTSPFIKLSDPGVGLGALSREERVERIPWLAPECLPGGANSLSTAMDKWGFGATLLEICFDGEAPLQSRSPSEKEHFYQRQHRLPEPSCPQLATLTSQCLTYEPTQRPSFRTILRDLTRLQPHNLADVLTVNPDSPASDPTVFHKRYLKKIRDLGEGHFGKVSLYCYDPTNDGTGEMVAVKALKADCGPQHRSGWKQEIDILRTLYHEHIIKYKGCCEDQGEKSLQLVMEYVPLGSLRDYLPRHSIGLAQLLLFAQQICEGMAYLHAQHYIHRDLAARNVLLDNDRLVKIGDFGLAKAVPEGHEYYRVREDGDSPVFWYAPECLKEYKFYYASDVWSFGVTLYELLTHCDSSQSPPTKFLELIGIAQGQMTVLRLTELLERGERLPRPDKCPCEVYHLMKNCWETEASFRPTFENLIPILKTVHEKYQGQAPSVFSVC
JH2 domain of human Tyk2, sequence (P29597 575-876): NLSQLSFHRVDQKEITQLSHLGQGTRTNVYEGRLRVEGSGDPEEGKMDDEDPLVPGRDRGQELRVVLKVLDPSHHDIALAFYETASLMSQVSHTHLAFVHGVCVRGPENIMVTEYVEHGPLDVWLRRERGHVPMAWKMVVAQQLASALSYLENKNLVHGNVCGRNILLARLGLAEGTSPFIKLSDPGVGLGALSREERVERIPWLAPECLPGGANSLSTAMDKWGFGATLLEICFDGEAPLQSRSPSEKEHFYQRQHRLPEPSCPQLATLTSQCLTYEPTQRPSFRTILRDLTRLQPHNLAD

As for `COCCOc1ccnc(-c2cnc(NC(C)=O)cc2Nc2cc(C)nc(C(C)(F)F)n2)n1` [Example 777, N-(4-((2-(1,1-difluoroethyl)-6-methylpyrimidin-4-yl)amino)-5-(4-(2-methoxyethoxy)pyrimidin-2-yl)pyridin-2-yl)acetamide], the figures for the IC50 at JH2 domain of human Tyk2 (setting [1]) and on Tyk2 were 10 to 100 nM and at least 1000 nM, respectively.

With `CC(=O)Nc1cc(Nc2cc(C)nc(C(C)(C)F)n2)c(-c2cc3n(n2)CCOC3)cn1` [Example 530, N-(5-(6,7-dihydrO4H-pyrazolo[5,1-c][1,4]oxazin-2-yl)-4-((2-(2-fluoropropan-2-yl)-6-methylpyrimidin-4-yl)amino)pyridin-2-yl)acetamide], the IC50 on JH2 domain of human Tyk2 (setting [2]) and against Tyk2 (MSD) was at most 10 nM throughout.

For the molecule `CC(=O)Nc1cc(Nc2cc(C)nc(C(C)(F)F)n2)c(-c2cnn(C(C)C)n2)cn1` [Example 610, N-(4-((2-(1,1-difluoroethyl)-6-methylpyrimidin-4-yl)amino)-5-(2-isopropyl-2H-1,2,3-triazol-4-yl)pyridin-2-yl)acetamide], the IC50 at JH2 domain of human Tyk2 (setting [2]) and against Tyk2 (MSD) was at most 10 nM each time.

Consider `CCc1cc(-c2cnc(NC(C)=O)cc2Nc2cc(C)nc(C(C)(F)F)n2)ncn1` [Example 244, N-(4-((2-(1,1-difluoroethyl)-6-methylpyrimidin-4-yl)amino)-5-(6-ethylpyrimidin-4-yl)pyridin-2-yl)acetamide], for which the IC50 on JH2 domain of human Tyk2 (setting [3]) is at most 10 nM; against Tyk2 (MSD), 10 to 100 nM.

Consider `COc1cc(-c2cnc(NC(C)=O)cc2Nc2cccc(C(C)(F)F)n2)ncn1` [Example 162, N-(4-((6-(1,1-difluoroethyl)pyridin-2-yl)amino)-5-(6-methoxypyrimidin-4-yl)pyridin-2-yl)acetamide], for which the IC50 on JH2 domain of human Tyk2 (setting [3]) and at Tyk2 (MSD) was at most 10 nM each time.

With `COc1cccnc1COc1cnc(NC(C)=O)cc1Nc1cc(C)nc(C(C)(F)F)n1` [Example 472, N-(4-((2-(1,1-difluoroethyl)-6-methylpyrimidin-4-yl)amino)-5-((3-methoxypyridin-2-yl)methoxy)pyridin-2-yl)acetamide], the IC50 was in the range of 10 to 100 nM at JH2 domain of human Tyk2 (setting [2]) and 100 to 1000 nM at Tyk2 (MSD).

Regarding `CC(=O)Nc1cc(Nc2ccnc(C(C)(F)F)n2)c(-c2ccn3ncnc3n2)cn1` [Example 537, N-(5-([1,2,4]triazolo[1,5-a]pyrimidin-5-yl)-4-((2-(1,1-difluoroethyl)pyrimidin-4-yl)amino)pyridin-2-yl)acetamide], the IC50 is at most 10 nM at JH2 domain of human Tyk2 (setting [2]) and 10 to 100 nM at Tyk2 (MSD).

For the molecule `CC(=O)Nc1cc(Nc2ccnc(C(C)(F)F)n2)c(-c2cc3n(n2)CCN(CC#N)C3)cn1` [Example 736, N-(5-(5-(cyanomethyl)-4,5,6,7-tetrahydropyrazolo[1,5-a]pyrazin-2-yl)-4-((2-(1,1-difluoroethyl)pyrimidin-4-yl)amino)pyridin-2-yl)acetamide], the IC50 on JH2 domain of human Tyk2 (setting [2]) and against Tyk2 (MSD) was at most 10 nM in each case.

`COc1nc(-c2cnc(NC(C)=O)cc2Nc2ccnc(C(C)(F)F)n2)cs1` [Example 712, N-(4-((2-(1,1-difluoroethyl)pyrimidin-4-yl)amino)-5-(2-methoxythiazol-4-yl)pyridin-2-yl)acetamide]: the IC50 at JH2 domain of human Tyk2 (setting [2]) and against Tyk2 (MSD) was at most 10 nM each time.

Regarding `CC(=O)Nc1cc(Nc2cc(C)nc(C(C)(F)F)n2)c(-n2cc(C)cn2)cn1` [Example 729, N-(4-((2-(1,1-difluoroethyl)-6-methylpyrimidin-4-yl)amino)-5-(4-methyl-1H-pyrazol-1-yl)pyridin-2-yl)acetamide], the IC50 on JH2 domain of human Tyk2 (setting [2]) and against Tyk2 (MSD) was at most 10 nM throughout.

For `CCOc1cnc(NC(C)=O)cc1Nc1cc(OC2CCC2)nc(C(C)(F)F)n1` [Example 462, N-(4-((6-cyclobutoxy-2-(1,1-difluoroethyl)pyrimidin-4-yl)amino)-5-ethoxypyridin-2-yl)acetamide], the IC50 on JH2 domain of human Tyk2 (setting [2]) and against Tyk2 (MSD) was at most 10 nM throughout.

As for `COc1cnc(NC(C)=O)cc1Nc1nc(C)cc(C(F)(F)F)n1` [Example 436, N-(5-methoxy-4-((4-methyl-6-(trifluoromethyl)pyrimidin-2-yl)amino)pyridin-2-yl)acetamide], the IC50 on JH2 domain of human Tyk2 (setting [2]) was 100 to 1000 nM; at Tyk2 (MSD), at least 1000 nM.

Take `CC(=O)Nc1cc(Nc2cc(C)nc(C(C)(F)F)n2)c(-c2csc(N3CCN(C)CC3)n2)cn1` [Example 771, N-(4-((2-(1,1-difluoroethyl)-6-methylpyrimidin-4-yl)amino)-5-(2-(4-methylpiperazin-1-yl)thiazol-4-yl)pyridin-2-yl)acetamide]: the IC50 at JH2 domain of human Tyk2 (setting [1]) and against Tyk2 was at most 10 nM each time.

With `CC(=O)Nc1cc(Nc2cc(C)nc(C(C)(F)F)n2)c(-c2nc(CN(C)C)cs2)cn1` [Example 784, N-(4-((2-(1,1-difluoroethyl)-6-methylpyrimidin-4-yl)amino)-5-(4-((dimethylamino)methyl)thiazol-2-yl)pyridin-2-yl)acetamide], the IC50 at JH2 domain of human Tyk2 (setting [1]) and at Tyk2 was at most 10 nM throughout.

As to `COc1cc(Nc2cc(NC(C)=O)ncc2OC)nc(C(C)(F)F)n1` [Example 18, N-(4-((2-(1,1-difluoroethyl)-6-methoxypyrimidin-4-yl)amino)-5-methoxypyridin-2-yl)acetamide], the IC50 at JH2 domain of human Tyk2 (setting [3]) is at most 10 nM; against Tyk2 (MSD), 10 to 100 nM.

For the molecule `CCOc1cnc(NC(C)=O)cc1Nc1ccc(-c2ccn(C)n2)c(OC)n1` [Example 491, N-(5-ethoxy-4-((6-methoxy-5-(1-methyl-1H-pyrazol-3-yl)pyridin-2-yl)amino)pyridin-2-yl)acetamide], the half-inhibitory concentration (IC50) on JH2 domain of human Tyk2 (setting [2]) is 10 to 100 nM; against Tyk2 (MSD) it was at least 1000 nM.

Consider `CC(=O)Nc1cc(Nc2cc(C(C)C)nc(C(C)(F)F)n2)c(O[C@H]2C[C@@H](F)C2)cn1` [Example 411, N-(4-((2-(1,1-difluoroethyl)-6-isopropylpyrimidin-4-yl)amino)-5-((1s,3s)-3-fluorocyclobutoxy)pyridin-2-yl)acetamide], for which the IC50 at JH2 domain of human Tyk2 (setting [2]) is at most 10 nM; against Tyk2 (MSD), 10 to 100 nM.

On to `CC(=O)Nc1cc(Nc2ccnc(C(C)(F)F)n2)c(-c2cc(C)ccn2)cn1` [Example 700, N-(4′-((2-(1,1-difluoroethyl)pyrimidin-4-yl)amino)-4-methyl-[2,3′-bipyridin]-6′-yl)acetamide], for which the results for the IC50 at JH2 domain of human Tyk2 (setting [2]) and on Tyk2 (MSD) were at most 10 nM and 10 to 100 nM, respectively.

For the molecule `CC(=O)Nc1cc(Nc2cc(OC3CC3)nc(C(C)(F)F)n2)c(OCc2ccccc2)cn1` [Example 487, N-(5-(benzyloxy)-4-((6-cyclopropoxy-2-(1,1-difluoroethyl)pyrimidin-4-yl)amino)pyridin-2-yl)acetamide], the IC50 at JH2 domain of human Tyk2 (setting [2]) and at Tyk2 (MSD) was at most 10 nM in each case.

As to `CC(=O)Nc1cc(Nc2cc(C)nc(C(C)(F)F)n2)c(OC[C@]23C[C@](C)(CO2)C3)cn1` [Example 514, N-(4-((2-(1,1-difluoroethyl)-6-methylpyrimidin-4-yl)amino)-5-(((1s,4s)-4-methyl-2-oxabicyclo[2.1.1]hexan-1-yl)methoxy)pyridin-2-yl)acetamide], the IC50 at JH2 domain of human Tyk2 (setting [2]) and against Tyk2 (MSD) was at most 10 nM throughout.

In the case of `COc1cnc(NC(C)=O)cc1Nc1cc(-c2cncc(C)c2)nc(C(C)(F)F)n1` [Example 389, N-(4-((2-(1,1-difluoroethyl)-6-(5-methylpyridin-3-yl)pyrimidin-4-yl)amino)-5-methoxypyridin-2-yl)acetamide], the IC50 is at most 10 nM on JH2 domain of human Tyk2 (setting [2]) and 10 to 100 nM against Tyk2 (MSD).

Consider `CC(=O)Nc1cc(Nc2cc(-c3cnn(C(C)C)c3)nc(C(C)(F)F)n2)c(F)cn1` [Example 819, N-(4-((2-(1,1-difluoroethyl)-6-(1-isopropyl-1H-pyrazol-4-yl)pyrimidin-4-yl)amino)-5-fluoropyridin-2-yl)acetamide], for which the IC50 was 10 to 100 nM at JH2 domain of human Tyk2 (setting [1]) and at least 1000 nM against Tyk2.

Regarding `CCc1cc(Nc2cc(NC(C)=O)ncc2-c2nnc(C)s2)nc(C(C)(F)F)n1` [Example 167, N-(4-((2-(1,1-difluoroethyl)-6-ethylpyrimidin-4-yl)amino)-5-(5-methyl-1,3,4-thiadiazol-2-yl)pyridin-2-yl)acetamide], the IC50 on JH2 domain of human Tyk2 (setting [3]) and at Tyk2 (MSD) was at most 10 nM throughout.

With `CC(=O)Nc1cc(Nc2cc(C)nc(C34COC(C3)C4)n2)c(-c2ccc3c(n2)OCC(C)(C)O3)cn1` [Example 563, N-(4-((2-(2-oxabicyclo[2.1.1]hexan-4-yl)-6-methylpyrimidin-4-yl)amino)-5-(2,2-dimethyl-2,3-dihydrO[1,4]dioxino[2,3-b]pyridin-6-yl)pyridin-2-yl)acetamide], the IC50 is at most 10 nM at JH2 domain of human Tyk2 (setting [2]) and 10 to 100 nM on Tyk2 (MSD).

In the case of `COc1cnc(-c2cnc(NC(C)=O)cc2Nc2ccnc(C(C)(F)F)n2)cn1` [Example 828, N-(4-((2-(1,1-difluoroethyl)pyrimidin-4-yl)amino)-5-(5-methoxypyrazin-2-yl)pyridin-2-yl)acetamide], the IC50 on JH2 domain of human Tyk2 (setting [1]) was at most 10 nM; against Tyk2, 10 to 100 nM.

As for `CC(=O)Nc1cc(Nc2cc(C)nc(C(C)(F)F)n2)c(OCc2nc(C)co2)cn1` [Example 325, N-(4-((2-(1,1-difluoroethyl)-6-methylpyrimidin-4-yl)amino)-5-((4-methyloxazol-2-yl)methoxy)pyridin-2-yl)acetamide], the IC50 at JH2 domain of human Tyk2 (setting [3]) is at most 10 nM; at Tyk2 (MSD) it was 10 to 100 nM.

As to `CC(=O)Nc1cc(Nc2ccnc(C(C)(F)F)n2)c(-c2ncn(C)n2)cn1` [Example 165, N-(4-((2-(1,1-difluoroethyl)pyrimidin-4-yl)amino)-5-(1-methyl-1H-1,2,4-triazol-3-yl)pyridin-2-yl)acetamide], the results for the IC50 on JH2 domain of human Tyk2 (setting [3]) and at Tyk2 (MSD) were 10 to 100 nM and 100 to 1000 nM, respectively.

Turning to `COCC(C)Oc1cnc(NC(C)=O)cc1Nc1cc(C)nc(C(C)(F)F)n1` (stereo not shown) [Example 59, N-(4-((2-(1,1-difluoroethyl)-6-methylpyrimidin-4-yl)amino)-5-((1-methoxypropan-2-yl)oxy)pyridin-2-yl)acetamide], the figures for the IC50 at JH2 domain of human Tyk2 (setting [3]) and against Tyk2 (MSD) were at most 10 nM and 100 to 1000 nM, respectively.

Regarding `COc1cc(-c2cnc(NC(C)=O)cc2Nc2cc(C)nc(C34COC(C3)C4)n2)ncn1` [Example 750, N-(4-((2-(2-oxabicyclo[2.1.1]hexan-4-yl)-6-methylpyrimidin-4-yl)amino)-5-(6-methoxypyrimidin-4-yl)pyridin-2-yl)acetamide], the IC50 at JH2 domain of human Tyk2 (setting [1]) was at most 10 nM; on Tyk2, 100 to 1000 nM.

By IC50 is commonly meant the concentration that inhibits the measured activity by half. A lower IC50 goes with greater potency in that assay.
